Assay results from the supplement of paper PMC10307832.

Key:
Experiment in all cases: relative viability (nuclei count vs DMSO), 5 days (fraction); higher = more cells survive
BX 795 + AZD7762 = compound: O=C(NCCCNc1nc(Nc2cccc(NC(=O)N3CCCC3)c2)ncc1I)c1cccs1 [BX 795] + NC(=O)Nc1cc(-c2cccc(F)c2)sc1C(=O)N[C@H]1CCCNC1 [AZD7762] (partner 0.2 µM)
Procedure, shortened: (§1)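 Relative viability was taken as the ratio of nuclei in treated wells to nuclei in vehicle wells. Lung cancer cell lines in 1536-well plates received compounds by pin tool one day after seeding, either one drug alone or a fixed anchor-drug dose plus five library-drug doses (not always all listed) in √10 steps. Nuclei were counted on 4× images after 5 days of treatment, and values are medians of duplicate plates.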

BX 795 + Phenformin = compound: O=C(NCCCNc1nc(Nc2cccc(NC(=O)N3CCCC3)c2)ncc1I)c1cccs1 [BX 795] + N=C(N)NC(=N)NCCc1ccccc1 [Phenformin] (partner 250 µM)
Procedure, shortened: as §1

BX 795 + Pemetrexed = compound: O=C(NCCCNc1nc(Nc2cccc(NC(=O)N3CCCC3)c2)ncc1I)c1cccs1 [BX 795] + Nc1nc2[nH]cc(CCc3ccc(C(=O)N[C@@H](CCC(=O)O)C(=O)O)cc3)c2c(=O)[nH]1 [Pemetrexed] (partner 0.2 µM)
Procedure, shortened: as §1

BX 795 + Pictilisib = compound: O=C(NCCCNc1nc(Nc2cccc(NC(=O)N3CCCC3)c2)ncc1I)c1cccs1 [BX 795] + CS(=O)(=O)N1CCN(Cc2cc3nc(-c4cccc5[nH]ncc45)nc(N4CCOCC4)c3s2)CC1 [Pictilisib] (partner 1 µM)
Procedure, shortened: as §1

BX 795 + Trametinib = compound: O=C(NCCCNc1nc(Nc2cccc(NC(=O)N3CCCC3)c2)ncc1I)c1cccs1 [BX 795] + CC(=O)Nc1cccc(-n2c(=O)n(C3CC3)c(=O)c3c(Nc4ccc(I)cc4F)n(C)c(=O)c(C)c32)c1 [Trametinib] (partner 0.02 µM)
Procedure, shortened: as §1

Cell Line	relative viability (BX 795 + AZD7762; first compound 0.04 µM)	relative viability (BX 795 + AZD7762; first compound 0.1265 µM)	relative viability (BX 795 + AZD7762; first compound 0.4 µM)	relative viability (BX 795 + AZD7762; first compound 1.265 µM)	relative viability (BX 795 + Phenformin; first compound 0.04 µM)	relative viability (BX 795 + Phenformin; first compound 0.1265 µM)	relative viability (BX 795 + Phenformin; first compound 0.4 µM)	relative viability (BX 795 + Phenformin; first compound 1.265 µM)	relative viability (BX 795 + Pemetrexed; first compound 0.04 µM)	relative viability (BX 795 + Pemetrexed; first compound 0.1265 µM)	relative viability (BX 795 + Pemetrexed; first compound 0.4 µM)	relative viability (BX 795 + Pemetrexed; first compound 1.265 µM)	relative viability (BX 795 + Pictilisib; first compound 0.04 µM)	relative viability (BX 795 + Pictilisib; first compound 0.1265 µM)	relative viability (BX 795 + Pictilisib; first compound 0.4 µM)	relative viability (BX 795 + Pictilisib; first compound 1.265 µM)	relative viability (BX 795 + Trametinib; first compound 0.04 µM)	relative viability (BX 795 + Trametinib; first compound 0.1265 µM)	relative viability (BX 795 + Trametinib; first compound 0.4 µM)	relative viability (BX 795 + Trametinib; first compound 1.265 µM)
LCLC-103H	0.706	0.878	0.712	0.849	0.301	0.327	0.355	0.298	0.432	0.429	0.407	0.452	0.577	0.674	0.596	0.643	0.578	0.681	0.712	0.651
LK-2	0.367	0.33	0.445	0.3	0.501	0.485	0.503	0.444	0.277	0.237	0.269	0.24	0.622	0.556	0.47	0.557	0.757	0.837	0.583	0.629
LOU-NH91	0.757	0.765	0.71	0.722	0.861	0.713	0.658	0.697	0.321	0.38	0.294	0.377	0.509	0.507	0.541	0.5	0.724	0.788	0.763	0.734
LU99A	0.344	0.355	0.347	0.24	0.875	0.741	0.915	0.53	0.148	0.197	0.128	0.209	0.384	0.317	0.329	0.252	0.558	0.484	0.41	0.278
LXF-289	1.07	1.14	0.995	1.06	0.464	0.529	0.582	0.467	0.898	0.832	0.894	0.831	0.844	0.77	0.879	0.649	0.523	0.67	0.725	0.631
NCI-H23	0.38	0.231	0.237	0.345	0.803	0.825	0.794	0.782	0.559	0.61	0.418	0.502	0.515	0.504	0.41	0.391	0.341	0.338	0.368	0.312
NCI-H322M	0.62	0.532	0.555	0.753	0.858	0.796	0.951	0.659	0.591	0.606	0.603	0.672	0.627	0.521	0.537	0.527	0.5	0.487	0.6	0.562
NCI-H358	0.518	0.556	0.372	0.433	0.296	0.319	0.257	0.117	0.167	0.168	0.134	0.123	0.387	0.251	0.327	0.245	0.158	0.124	0.111	0.114
NCI-H441	1.23	1.21	1.07	0.866	0.986	0.831	0.983	0.531	0.255	0.272	0.281	0.267	0.609	0.503	0.666	0.37	0.545	0.4	0.596	0.335
NCI-H460	0.587	0.616	0.664	0.767	0.5	0.609	0.415	0.372	0.0535	0.0622	0.0597	0.0576	0.361	0.418	0.374	0.261	0.265	0.138	0.13	0.12
NCI-H596	1.11	0.956	1.14	1.03	0.681	0.802	0.805	0.887	0.464	0.476	0.456	0.527	0.449	0.38	0.417	0.431	0.807	0.757	0.932	0.776
NCI-H647	0.554	0.493	0.43	0.363	0.456	0.541	0.572	0.266	0.163	0.186	0.106	0.106	–	0.363	0.438	0.343	0.447	0.504	0.448	0.344
NCI-H650	0.843	0.908	0.701	1.05	0.467	0.425	0.5	0.408	0.889	1.04	0.866	0.809	0.86	0.979	0.762	0.623	1.05	0.999	0.986	0.928
NCI-H838	0.94	0.981	0.786	0.824	0.494	0.538	0.425	0.214	0.254	0.249	0.189	0.184	0.449	0.425	0.382	0.326	0.5	0.473	0.397	0.302
NCI-H1355	0.784	0.607	0.734	0.69	0.491	0.455	0.465	0.357	0.798	0.977	1.09	1.01	0.451	0.423	0.436	0.424	0.427	0.344	0.44	0.362
NCI-H1395	0.375	0.427	0.39	0.381	0.471	0.462	0.458	0.431	0.675	0.872	0.407	0.626	0.673	0.562	0.461	0.533	1.05	1.06	0.52	0.925

Cell Line	relative viability (BX 795 + AZD7762; first compound 0.04 µM)	relative viability (BX 795 + AZD7762; first compound 0.1265 µM)	relative viability (BX 795 + AZD7762; first compound 0.4 µM)	relative viability (BX 795 + AZD7762; first compound 1.265 µM)	relative viability (BX 795 + Phenformin; first compound 0.04 µM)	relative viability (BX 795 + Phenformin; first compound 0.1265 µM)	relative viability (BX 795 + Phenformin; first compound 0.4 µM)	relative viability (BX 795 + Phenformin; first compound 1.265 µM)	relative viability (BX 795 + Pemetrexed; first compound 0.04 µM)	relative viability (BX 795 + Pemetrexed; first compound 0.1265 µM)	relative viability (BX 795 + Pemetrexed; first compound 0.4 µM)	relative viability (BX 795 + Pemetrexed; first compound 1.265 µM)	relative viability (BX 795 + Pictilisib; first compound 0.04 µM)	relative viability (BX 795 + Pictilisib; first compound 0.1265 µM)	relative viability (BX 795 + Pictilisib; first compound 0.4 µM)	relative viability (BX 795 + Pictilisib; first compound 1.265 µM)	relative viability (BX 795 + Trametinib; first compound 0.04 µM)	relative viability (BX 795 + Trametinib; first compound 0.1265 µM)	relative viability (BX 795 + Trametinib; first compound 0.4 µM)	relative viability (BX 795 + Trametinib; first compound 1.265 µM)
NCI-H1437	1.14	1.14	0.888	1.18	0.279	0.336	0.328	0.257	0.277	0.305	0.257	0.321	0.488	0.411	0.417	0.55	0.496	0.605	0.516	0.538
NCI-H1651	0.469	0.457	0.463	0.511	0.322	0.356	0.312	0.24	0.602	0.571	0.409	0.596	0.569	0.617	0.615	0.645	0.847	0.87	0.879	0.824
NCI-H1666	0.895	0.784	0.838	0.832	0.362	0.568	0.483	0.49	0.836	0.83	0.697	0.79	0.364	0.516	0.449	0.273	0.856	0.884	0.974	0.802
NCI-H1734	0.54	0.562	0.51	0.444	0.419	0.375	0.402	0.307	0.348	0.421	0.33	0.398	0.463	0.471	0.411	0.368	0.714	0.651	0.69	0.562
NCI-H1755	0.465	0.467	0.374	0.386	0.618	0.564	0.592	0.546	0.42	0.44	0.381	0.447	0.442	0.418	0.35	0.305	0.849	0.763	0.793	0.665
NCI-H1792	0.616	–	0.696	0.576	0.431	0.463	0.216	0.178	0.918	–	0.882	0.533	0.286	0.269	0.24	0.191	0.425	–	0.525	0.509
NCI-H1793	0.425	0.447	0.484	0.487	0.358	0.35	0.366	0.289	0.872	0.628	0.856	0.711	0.399	0.333	0.333	0.257	0.404	0.403	0.526	0.344
NCI-H1915	0.651	0.658	0.666	0.695	0.388	0.389	0.38	0.301	0.347	0.458	0.304	0.442	0.98	0.831	0.954	0.798	0.315	0.271	0.304	0.265
NCI-H1944	0.531	0.555	0.48	0.531	0.254	0.203	0.234	0.191	0.616	0.577	0.41	0.606	0.376	0.329	0.367	0.363	0.467	0.377	0.538	0.374
NCI-H1975	0.705	0.792	0.67	0.564	0.409	0.442	0.422	0.317	0.272	0.299	0.247	0.297	0.3	0.328	0.26	0.224	0.383	0.358	0.316	0.316
NCI-H1993	0.759	0.795	0.589	0.809	0.492	0.499	0.485	0.523	0.624	0.616	0.623	0.585	0.83	0.79	0.793	0.806	0.554	0.439	0.504	0.561
NCI-H2085	0.895	0.932	0.947	0.957	0.73	0.83	0.699	0.606	0.848	0.865	0.919	0.899	0.463	0.454	0.433	0.489	0.645	0.512	0.669	0.484
NCI-H2087	1.26	1.33	1.32	1.13	0.547	0.545	0.563	0.411	0.695	0.655	0.696	0.654	0.999	1.02	1.03	0.756	0.235	0.163	0.242	0.221
NCI-H2126	1.02	1.01	1.01	0.983	0.534	0.542	0.605	0.498	0.713	0.692	0.457	0.666	0.479	0.462	0.566	0.448	0.611	0.537	0.685	0.534
NCI-H2170	0.874	1.09	0.812	0.791	0.46	0.383	0.446	0.413	0.271	0.286	0.243	0.249	0.3	0.283	0.283	0.249	0.948	0.945	0.93	0.951
